#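 48-hour exposure; five concentrations; linearly interpolated endpoints. TGI denotes the concentration required for complete inhibition of growth.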
# What was measured:
# Assay in all cases: NCI tumour cell line growth inhibition, 48 h
# LXFL 529 NSCLC = test system: LXFL 529 NSCLC
# M19-MEL melanoma = test system: M19-MEL melanoma
# DLD-1 colon = test system: DLD-1 colon
# DMS 114 small cell lung = test system: DMS 114 small cell lung
# HOP-18 NSCLC = test system: HOP-18 NSCLC
# KM20L2 colon = test system: KM20L2 colon
# XF 498 CNS = test system: XF 498 CNS
# RXF-631 renal = test system: RXF-631 renal
# SN12K1 renal = test system: SN12K1 renal
# P388/ADR leukemia = test system: P388/ADR leukemia
# P388 leukemia = test system: P388 leukemia
Structure (SMILES),TGI (LXFL 529 NSCLC) [µM],TGI (M19-MEL melanoma) [µM],TGI (DLD-1 colon) [µM],TGI (DMS 114 small cell lung) [µM],TGI (HOP-18 NSCLC) [µM],TGI (KM20L2 colon) [µM],TGI (XF 498 CNS) [µM],TGI (RXF-631 renal) [µM],TGI (SN12K1 renal) [µM],TGI (P388/ADR leukemia) [µM],TGI (P388 leukemia) [µM]
CC(=O)NC1=C(C)C(=O)c2c(nc3n2CCC3O)C1=O (stereo unspecified),41.8,> 57.1,> 100,21,> 100,> 100,38.1,–,–,–,–
CCNC(=O)/C=C/CCC#Cc1ccc(-c2ccc(-c3cccs3)s2)s1,> 100,> 100,> 100,> 100,> 100,> 100,7.19,–,–,–,–
Oc1ccc2c(c1)CC[N+]1=C2CCC2CCCC21 (stereo unspecified),> 100,> 100,> 100,> 100,–,–,–,–,–,–,–
CCOC(=O)C(=O)C1C(=O)Nc2ccccc21 (stereo unspecified),> 100,> 100,> 100,> 100,–,–,> 100,> 100,–,–,–
[N-]=[N+]=NC1CC(n2cc(COCC(F)(F)F)c(=O)[nH]c2=O)OC1CO (stereo unspecified),> 100,> 100,> 100,> 100,–,> 100,> 100,–,–,–,–
C[C@@H]1C[C@]2(C[C@@H](C)[C@H]3C(C[C@@]4(C)CCC[C@@H]5C6=C[C@H](CCC34C)OC6=CC(=O)OC5(C)C)O2)OC1=O (stereo partly specified),–,> 51.5,> 51.5,> 51.5,> 51.5,> 51.5,> 51.5,–,> 51.5,> 51.5,> 51.5
CSc1nc(NC2OCC(O)C(O)C2O)c(N)c(=O)n1C (stereo unspecified),–,–,> 100,–,> 100,> 100,> 100,–,> 100,> 100,> 100
CN(C)CCCNc1c2ccccc2nc2cccc([N+](=O)[O-])c12,–,0.0787,–,0.0385,–,0.0398,0.0147,–,–,–,–
N=S(=O)(c1ccccc1)c1ccccc1[N+](=O)[O-] (stereo unspecified),> 100,> 100,> 100,–,> 100,> 100,> 100,> 100,–,–,–
CC1CCc2c(sc3ncnc(N/N=C/c4ccc(Cl)c(Cl)c4)c23)C1 (stereo unspecified),–,96.2,> 100,13.3,–,> 100,–,–,–,–,–
